This is an account of results in US20260297042A1, “BIARYLAMIDE DERIVATIVES AND THEIR USE AS PKMYT1 INHIBITORS” (CANCER RESEARCH TECHNOLOGY LIMITED, priority 2023, published 2026).

The structures appear in SMILES notation. Structures can show the parent of a compound that is named as a salt.

One assay concerns the target T1, Human PKMYT1 (Homo sapiens, UniProt Q99640).
T1 construct: Human PKMYT1 75-362 was cloned as a TEV cleavable 6xHis fusion; 6xHis (TEV cleavable) (cleaved yes); made in house; host or cells: bacterial cells
T1 sequence (Q99640 75-362): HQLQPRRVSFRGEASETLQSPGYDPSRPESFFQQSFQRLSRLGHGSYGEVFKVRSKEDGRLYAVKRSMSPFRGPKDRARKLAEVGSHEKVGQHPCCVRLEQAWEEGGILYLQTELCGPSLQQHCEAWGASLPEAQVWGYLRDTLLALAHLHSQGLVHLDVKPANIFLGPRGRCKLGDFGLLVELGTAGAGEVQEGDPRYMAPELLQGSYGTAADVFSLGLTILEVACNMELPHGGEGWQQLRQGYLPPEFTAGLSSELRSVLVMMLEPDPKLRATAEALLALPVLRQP
Briefly: PKMYT1 biochemical ADP-Glo enzymatic assay. The following applies: PKMYT1 kinase domain 15 nM; ADP-Glo; banded values. The essentials:
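Intrinsic ATPase activity of E. coli-expressed, tag-cleaved human PKMYT1 kinase domain (75-362), 15 nM, with 500 µM ATP in HEPES pH 7.5/MgCl2/EGTA/Brij-35, 1% DMSO, 60 min at 26 °C. ADP formed was read by ADP-Glo Max luminescence; IC50 from 10-point, 3-fold dilution curves.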

The target in another assay is T2, WEE1 (Homo sapiens, UniProt P30291).
T2 construct: purchased Thermo Fisher PR7373A
T2 sequence (P30291 whole entry): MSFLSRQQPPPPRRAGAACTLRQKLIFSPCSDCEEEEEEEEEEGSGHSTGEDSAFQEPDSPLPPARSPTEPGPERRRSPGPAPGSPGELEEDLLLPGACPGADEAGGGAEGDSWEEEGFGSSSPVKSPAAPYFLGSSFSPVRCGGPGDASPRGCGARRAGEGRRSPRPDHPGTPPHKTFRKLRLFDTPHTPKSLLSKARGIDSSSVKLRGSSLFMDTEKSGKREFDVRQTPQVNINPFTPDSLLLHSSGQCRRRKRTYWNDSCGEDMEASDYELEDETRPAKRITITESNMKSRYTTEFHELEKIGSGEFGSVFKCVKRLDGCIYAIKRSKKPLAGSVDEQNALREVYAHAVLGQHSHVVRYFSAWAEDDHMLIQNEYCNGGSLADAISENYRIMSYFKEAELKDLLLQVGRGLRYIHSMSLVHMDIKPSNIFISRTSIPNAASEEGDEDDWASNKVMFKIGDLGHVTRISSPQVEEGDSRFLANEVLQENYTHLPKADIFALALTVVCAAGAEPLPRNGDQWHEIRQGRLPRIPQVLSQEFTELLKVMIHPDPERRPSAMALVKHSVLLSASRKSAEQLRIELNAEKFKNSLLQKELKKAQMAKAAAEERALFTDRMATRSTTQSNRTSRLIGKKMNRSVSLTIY
The experiment in a line: Selectivity versus WEE1 assay (ADP-Glo enzymatic assay). It is filed as biochemical. The note with it: for IC50: WEE1 15 nM, ADP-Glo, banded values; for PKMYT1 vs. WEE1 selectivity: fold difference in selectivity for PKMYT1 over WEE1, banded. The essentials: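 Kinase at 15 nM final in 50 mM HEPES pH 7.5, 10 mM MgCl2, 1 mM EGTA, 0.01% Brij-35, 1% DMSO was started with 30 µM ATP and run 60 min at 26° C. ADP formed was read by ADP-Glo luminescence; IC50 came from dose-response curves.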

The test system of a further assay is OVCAR 3 cells. Briefly: Cancer cell line proliferation assay, ATP-based cell viability (Cell Titre Glow), OVCAR 3 (CCNE1-amplified). The following applies: KYSE30 (normal CCNE1) GI50 vs. OVCAR 3 (CCNE1-amplified) GI50. The essentials:
(§1)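 CellTiter-Glo luminescence endpoint; PKMYT1 inhibitor exposure; GI50 = conc. for 50% growth inhibition, curve-fitted.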

Another assay relates to KYSE-30 cells. Briefly: Cancer cell line proliferation assay, ATP-based cell viability (Cell Titre Glow), KYSE-30 (normal CCNE1). The note with it: Homo sapiens, KYSE-30 cells (normal CCNE1), concentration that achieves 50% cell growth proliferation inhibition, read-out: KYSE30 Gl50. The essentials:
as §1

Assay [1] addresses T3, Cellular PKMYT1 Biomarker CDK1 pT14 (Homo sapiens, UniProt Q99640).
T3 construct: read-out CDK1 phospho-T14 immunoblot
T3 sequence (Q99640 1-499): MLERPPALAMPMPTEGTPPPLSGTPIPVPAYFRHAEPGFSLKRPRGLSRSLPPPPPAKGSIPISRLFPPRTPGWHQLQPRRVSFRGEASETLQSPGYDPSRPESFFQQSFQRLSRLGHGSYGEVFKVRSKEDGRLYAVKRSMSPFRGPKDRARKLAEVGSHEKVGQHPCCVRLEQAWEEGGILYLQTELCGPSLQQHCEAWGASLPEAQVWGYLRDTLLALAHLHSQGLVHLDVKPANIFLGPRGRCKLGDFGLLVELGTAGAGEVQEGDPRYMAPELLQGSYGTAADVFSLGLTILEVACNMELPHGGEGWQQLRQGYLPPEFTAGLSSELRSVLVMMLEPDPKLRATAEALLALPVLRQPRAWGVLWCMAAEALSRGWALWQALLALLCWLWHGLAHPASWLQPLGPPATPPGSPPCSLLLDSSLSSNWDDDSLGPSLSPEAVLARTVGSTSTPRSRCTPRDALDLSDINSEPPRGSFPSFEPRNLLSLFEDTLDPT
Briefly: Inhibition of cellular PKMYT1 biomarker CDK1 pT14 in OVCAR 3 cells (immunoblot). Format: cell-based. The following applies: 20 hours incubation. The essentials:
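Confluent OVCAR 3 cells treated with a compound concentration range for 20 h at 37 °C. Lysates analysed by automated capillary immunoblot for CDK1 phospho-T14, with vinculin, fluorescence detection; IC50 by regression.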
Background: In western blotting, separated proteins are transferred to a membrane and probed.

A word on the IC50: it is the concentration that gives 50% inhibition. High values mean lower potency, low ones higher potency. In the case of `CCc1cn(CC#N)nc1Nc1ncc(C(=O)Nc2c(C)ccc(O)c2C)s1` [BAA-590, 2-((1-(cyanomethyl)-4-ethyl-1H-pyrazol-3-yl)amino)-N-(3-hydroxy-2,6-dimethylphenyl)thiazole-5-carboxamide. TFA salt], the IC50 against Human PKMYT1 is less than 0.05 µM; against WEE1, 0.05 to 1 µM; in assay [1], less than 0.1 µM. The “PKMYT1 vs. WEE1 selectivity” value at WEE1 is on record as “W (10-<100 fold)”. In the assay on OVCAR 3 cells, the “Selectivity ratio KYSE30 Gl50 vs. OVCAR3 Gl50” value is recorded as “Y (>20 fold)”. The GI50 with KYSE-30 cells is more than 5 µM.

Take `Cc1cn(C(CO)C(=O)N(C)C2CC2)nc1Nc1ncc(C(=O)Nc2c(C)ccc(O)c2C)s1` (stereo not drawn) [BAA-591, 2-((1-(1-(cyclopropyl(methyl)amino)-3-hydroxy-1-oxopropan-2-yl)-4-methyl-1H-pyrazol-3-yl)amino)-N-(3-hydroxy-2,6-dimethylphenyl)thiazole-5-carboxamide]: the IC50 is less than 0.05 µM on Human PKMYT1, 1 to 11 µM on WEE1 and less than 0.1 µM in assay [1]. Moreover, the “PKMYT1 vs. WEE1 selectivity” value at WEE1 is reported as “X (100-<1000 fold)”. Moreover, the “Selectivity ratio KYSE30 Gl50 vs. OVCAR3 Gl50” value in the assay with OVCAR 3 cells is “Y (>20 fold)”. Moreover, the GI50 with KYSE-30 cells was more than 5 µM.

As for `CCN(C(=O)C(CO)n1cc(C)c(Nc2ncc(C(=O)Nc3c(C)ccc(O)c3C)s2)n1)C1CC1` (stereo not drawn) [BAA-592, 2-((1-(1-(cyclopropyl(ethyl)amino)-3-hydroxy-1-oxopropan-2-yl)-4-methyl-1H-pyrazol-3-yl)amino)-N-(3-hydroxy-2,6-dimethylphenyl)thiazole-5-carboxamide], the IC50 is less than 0.05 µM on Human PKMYT1, 1 to 11 µM against WEE1 and less than 0.1 µM in assay [1]. The “PKMYT1 vs. WEE1 selectivity” value at WEE1 was “X (100-<1000 fold)”. Besides, in the assay on OVCAR 3 cells, the “Selectivity ratio KYSE30 Gl50 vs. OVCAR3 Gl50” value is recorded as “Y (>20 fold)”. For the same compound, the GI50 in the assay on KYSE-30 cells was more than 5 µM.

As to `CCc1c[nH]nc1Nc1ncc(C(=O)Nc2c(C)ccc(O)c2C)s1` [BAA-594, 2-((4-Ethyl-1H-pyrazol-3-yl)amino)-N-(3-hydroxy-2,6-dimethylphenyl)thiazole-5-carboxamide], the concentration for half-maximal inhibition (IC50) on Human PKMYT1 was less than 0.05 µM; against WEE1, 1 to 11 µM; in assay [1], less than 0.1 µM. In addition, on WEE1, the “PKMYT1 vs. WEE1 selectivity” value is “X (100-<1000 fold)”. Besides, the “Selectivity ratio KYSE30 Gl50 vs. OVCAR3 Gl50” value with OVCAR 3 cells was “Y (>20 fold)”. The GI50 in the assay with KYSE-30 cells is more than 5 µM.

On to `Cc1cn(CC(=O)N(C)C2CCC2)nc1Nc1ncc(C(=O)Nc2c(C)ccc(O)c2C)s1` [BAA-595, 2-((1-(2-(cyclobutyl(methyl)amino)-2-oxoethyl)-4-methyl-1H-pyrazol-3-yl)amino)-N-(3-hydroxy-2,6-dimethylphenyl)thiazole-5-carboxamide], for which the IC50 was less than 0.05 µM on Human PKMYT1, 1 to 11 µM on WEE1 and less than 0.1 µM in assay [1]. Besides, the “PKMYT1 vs. WEE1 selectivity” value on WEE1 is reported as “X (100-<1000 fold)”. The “Selectivity ratio KYSE30 Gl50 vs. OVCAR3 Gl50” value in the assay on OVCAR 3 cells is listed as “Y (>20 fold)”. Besides, the GI50 in the assay on KYSE-30 cells was more than 5 µM.

Turning to `Cc1ccc(O)c(C)c1NC(=O)c1cnc(Nc2ccc3ncccc3n2)s1` [BAA-596, 2-((1,5-naphthyridin-2-yl)amino)-N-(3-hydroxy-2,6-dimethylphenyl)thiazole-5-carboxamide], the figures for the 50% inhibitory concentration (IC50) (against Human PKMYT1; against WEE1; in assay [1]) were less than 0.05 µM, more than 11 µM and 0.1 to 1 µM, respectively. In addition, at WEE1, the “PKMYT1 vs. WEE1 selectivity” value was “Y (1000-5000 fold)”. The “Selectivity ratio KYSE30 Gl50 vs. OVCAR3 Gl50” value in the assay with OVCAR 3 cells was “Y (>20 fold)”. The GI50 in the assay with KYSE-30 cells fell in the range of 0.5 to 5 µM.

As to `Cc1ccc(O)c(C)c1NC(=O)c1cnc(Nc2ccc3ccncc3n2)s1` [BAA-597, 2-((1,7-naphthyridin-2-yl)amino)-N-(3-hydroxy-2,6-dimethylphenyl)thiazole-5-carboxamide], the IC50 on Human PKMYT1 is less than 0.05 µM; against WEE1 it was more than 11 µM; in assay [1], 0.1 to 1 µM. The “PKMYT1 vs. WEE1 selectivity” value on WEE1 is reported as “X (100-<1000 fold)”. The “Selectivity ratio KYSE30 Gl50 vs. OVCAR3 Gl50” value in the assay on OVCAR 3 cells is “Y (>20 fold)”. The GI50 with KYSE-30 cells fell in the range of 0.5 to 5 µM.

On to `Cc1cn(CC(=O)N2CCC2C)nc1Nc1ncc(C(=O)Nc2c(C)ccc(O)c2C)s1` (stereo not drawn) [BAA-598, N-(3-hydroxy-2,6-dimethylphenyl)-2-((4-methyl-1-(2-(2-methylazetidin-1-yl)-2-oxoethyl)-1H-pyrazol-3-yl)amino)thiazole-5-carboxamide], for which the IC50 at Human PKMYT1 is less than 0.05 µM; against WEE1, 1 to 11 µM; in assay [1], less than 0.1 µM. Besides, the “PKMYT1 vs. WEE1 selectivity” value on WEE1 is given as “X (100-<1000 fold)”. Also, in the assay with OVCAR 3 cells, the “Selectivity ratio KYSE30 Gl50 vs. OVCAR3 Gl50” value is reported as “Y (>20 fold)”. The GI50 in the assay on KYSE-30 cells was 0.5 to 5 µM.

As for `COC[C@H]1CCCN1C(=O)Cn1cc(C)c(Nc2ncc(C(=O)Nc3c(C)ccc(O)c3C)s2)n1` [BAA-599, N-(3-Hydroxy-2,6-dimethyl-phenyl)-2-[[1-[2-[(2R)-2-(methoxymethyl)pyrrolidin-1-yl]-2-oxo-ethyl]-4-methyl-pyrazol-3-yl]amino]thiazole-5-carboxamide], the figures for the half-maximal inhibitory concentration (IC50) (on Human PKMYT1; on WEE1; in assay [1]) were less than 0.05 µM, 1 to 11 µM and 0.1 to 1 µM, respectively. Moreover, on WEE1, the “PKMYT1 vs. WEE1 selectivity” value is recorded as “X (100-<1000 fold)”. The “Selectivity ratio KYSE30 Gl50 vs. OVCAR3 Gl50” value in the assay on OVCAR 3 cells is given as “Y (>20 fold)”. The GI50 in the assay with KYSE-30 cells was more than 5 µM.

In the case of `Cc1cn(CC(=O)N2CCCC2c2ccccc2)nc1Nc1ncc(C(=O)Nc2c(C)ccc(O)c2C)s1` (stereo not drawn) [BAA-600, N-(3-hydroxy-2,6-dimethylphenyl)-2-((4-methyl-1-(2-oxo-2-(2-phenylpyrrolidin-1-yl)ethyl)-1H-pyrazol-3-yl)amino)thiazole-5-carboxamide], the half-inhibitory concentration (IC50) against Human PKMYT1 is less than 0.05 µM; on WEE1 it was 1 to 11 µM; in assay [1] it was less than 0.1 µM. Moreover, at WEE1, the “PKMYT1 vs. WEE1 selectivity” value was “X (100-<1000 fold)”. Moreover, the “Selectivity ratio KYSE30 Gl50 vs. OVCAR3 Gl50” value in the assay on OVCAR 3 cells is given as “Y (>20 fold)”. In addition, the GI50 with KYSE-30 cells lay in the range of 0.5 to 5 µM.

Take `Cc1cn(CC(=O)N2CCCC2(C)C)nc1Nc1ncc(C(=O)Nc2c(C)ccc(O)c2C)s1` [BAA-605, 2-((1-(2-(2,2-dimethylpyrrolidin-1-yl)-2-oxoethyl)-4-methyl-1H-pyrazol-3-yl)amino)-N-(3-hydroxy-2,6-dimethylphenyl)thiazole-5-carboxamide]: the 50% inhibitory concentration (IC50) was less than 0.05 µM at Human PKMYT1, 1 to 11 µM at WEE1 and less than 0.1 µM in assay [1]. Moreover, the “PKMYT1 vs. WEE1 selectivity” value at WEE1 is listed as “X (100-<1000 fold)”. Moreover, in the assay on OVCAR 3 cells, the “Selectivity ratio KYSE30 Gl50 vs. OVCAR3 Gl50” value is recorded as “Y (>20 fold)”. Moreover, in the assay with KYSE-30 cells, the GI50 was more than 5 µM.

For the compound `COCC1(N(C)C(=O)Cn2cc(C)c(Nc3ncc(C(=O)Nc4c(C)ccc(O)c4C)s3)n2)CC1` [BAA-607], the IC50 is less than 0.05 µM on Human PKMYT1, 1 to 11 µM against WEE1 and less than 0.1 µM in assay [1]. Further, at WEE1, the “PKMYT1 vs. WEE1 selectivity” value was “X (100-<1000 fold)”. In addition, the “Selectivity ratio KYSE30 Gl50 vs. OVCAR3 Gl50” value in the assay on OVCAR 3 cells is “Y (>20 fold)”. Besides, in the assay with KYSE-30 cells, the GI50 was more than 5 µM.
